Measured values taken from patent publication US10774039B2, “Cyclopropene amino acids and methods” (United Kingdom Research and Innovation, priority 2014, dated 2020).

Legend:
[1] = test system: PylRS/tRNACUA pair; test: Site-specific incorporation into sfGFP150TAG expressed in E. coli; type: cell-based, Methanosarcina barkeri
Procedure: FIG. 2A: The PylRS/RNACUA pair directs efficient, site-specific incorporation of 3 into sfGFP bearing an amber stop codon at position 150.
Expression and purification of sfGFP-3 from E. coli Electrocompetent E. coli DH10B cells were co-transformed with pBK-MbPylRS and psfGFP150TAG PyIT^14, 26. Transformed cells were recovered in S.O.B. (1 mL, supplemented with 0.2% glucose) for 1 h at 37° C. and used to inoculate LB containing 50 μg/mL kanamycin and 25 μg/mL tetracycline (LB-KT). The cells were incubated with shaking overnight at 37° C., 250 r.p.m. 1 mL of overnight culture was used to inoculate 100 mL of LB-KT½, the day culture was then incubated (37° C., 250 r.p.m). At O.D.600˜0.3, the culture was divided equally and supplemented with either 3 (1 mM) or H2O (500 μL) and incubated further (37° C., 250 r.p.m). At O.D.600˜0.6 protein expression was induced by the addition of arabinose (0.2%), after 4 h, the cells were harvested by centrifugation (4000 r.p.m, 20 min) and the pellet frozen until further use.
The frozen bacterial pellet was thawed on ice and resuspended in 2.5 mL lysis buffer (Bugbuster®, Novagen®, 50 μg/mL DNAse 1, Roche inhibitor cocktail and 20 mM imidazole). Cells were incubated (4° C., 30 minutes) then clarified by centrifugation (16000 g, 4° C., 30 minutes). The clarified lysates were transferred to fresh tubes and 100 μL Ni-NTA slurry added. The mixtures was incubated with agitation (4° C., 1 h) and then collected by centrifugation (1000 g, 4° C., 5 min). The beads were resuspended three times in 500 μL wash buffer (10 mM Tris-HCL, 40 mM imidazole, 200 mM NaCl, pH 8) and collected by centrifugation (1000 g, 4° C., 5 min). Finally, the beads were resuspended in 100 μL, elution buffer (10 mM Tris-HCL, 300 mM imidazole, 200 mM NaCl, pH 8), pelleted by centrifugation (1000 g, 4° C., 5 min) and the supernatant collected into fresh tubes. The elution was repeated three times with 100 μL of elution buffer. The purified proteins were analysed by 4-12% SDS-PAGE and LC-MS.

[2] = test system: DH10B cells; test: E. coli growth (OD600) in presence of 3 during SORT-M; type: cell-based
Procedure: Chemically competent DH10B cells were transformed with two plasmids: pBKwtPylRS necessary for expression of PylRS, and pBAD_wtT4L_MbPylTXXX plasmids that is required for expression of PyltRNAXXX and expresses lysozyme under arabinose control. […] 200 μL aliquots of these cultures were transferred into a 96-well plate and OD600 measured using a Microplate reader, Infinite 200 Pro (TECAN). OD600 was measured for each sample every 10 min with linear 1 mm shaking between the measurements.

CC1=CC1COC(=O)NCCCC[C@H](N)C(=O)O (stereo partly drawn) [amino acid 3, N^ε-[((2-methylcycloprop-2-en-1-yl)methoxy)carbonyl]-L-lysine]
yield of protein ([1]; SfGFP gene with amber codon at position 150, E. coli, PylRS/tRNACUA pair): 8 mg per litre of culture | efficiency of site-specific incorporation into sfGFP ([1]; amber stop codon at position 150, E. coli, compared with 1): more efficient than 1 | toxicity to cells of incorporation via SORT-M ([2]; 0.1 mM): Not Toxic | effect on cell growth ([2]; 0.1 or 0.5 mM): little or no effect on cell growth
